# Experimental data taken from US20180155737A1, “METHOD FOR MODULATING PLANT ROOT ARCHITECTURE” (priority 2012, published 2018).
# “Also recorded” adds a separate entry of the source. Square brackets hold non-standard residues; d marks the D form. Ends that are not written are not given here. Hyp = O=C(O)[C@@H]1C[C@@H](O)CN1
# Key:
# [1] = test system: M. truncatula root nodulation by S. meliloti; assay: Nodulation with S. meliloti of peptide-treated M. truncatula plants; type: in vivo, Medicago truncatula
# Source text: The 3-weeks old transformed hairy-roots plants were first transferred to a modified Fahraeus media without […] and kanamycin to starve the plants of nitrogen for 4 days. Inoculation with Sinorhizobium meliloti was done as described in Saur I M, Oakes M, Djordjevic M A, & Imin N (2011), “Crosstalk between the nodulation signaling pathway and the autoregulation of modulation in Medicago truncatula”, New Phytol 190(4):[…].
# (§1) (b) partial nitrate tolerance of nodule development induced by WSM1022 on MtRAR1 over-expressing plants. Three weeks old composite plants were inoculated and scored two weeks post inoculation. N≥30. student's t-test; *; P<0.05; **; P<0.01; ***; P<0.001. (e) Acetylene reduction assay. MtRAR1 treated (1 μM) and non treated wild-type plants grown in Fåhraeus medium were harvested at 2 week post inoculation by S. meliloti WSM1022. Nitrogenase activity was calculated from peak areas of samples relative to acetylene and ethylene standards to obtain nmoles ethylene/min. N≥3, student's t-test; *: P<0.05; **: P<0.01. Error bars indicate SE. (d) Inoculation of plants with performed CCPs led to root nodule formation at CCP sites at 25 mM KNO3. Arrow head: CCP sites: Arrows: nodules. […] Scale bar: 100 μm. Plants were grown at 20° C.
# FIG. 32 M. truncatula plants were grown in 0.8% agar-containing plates supplemented with F media with or without MtRAR1 peptide. Five-day old seedlings were inoculated with S. meliloti strain WSM1022 and further grown for two mom weeks. MtRAR1 Domain 1: AFQ(P)TTPGNS(P)GVGH: MtRAR1 Domain 1 with G−>A transition: AFQ(P)TTPANS(P)GVGH. (P) is hydroxylproline and the altered amino acid is underlined.
# M. truncatula roots = assay: Exogenous application of synthetic RAR peptides to M. truncatula roots (lateral roots, CCP sites/bumps, root growth); type: in vivo, Medicago truncatula; conditions: for Periodic bump (CCP site) formation: synthetic peptide applied to roots
# Experimental: Seeds of M. truncatula cv Jemalong genotype A17 wild-type and M. truncatula 2HA line carrying either GH3 promoter-GUS reporter fusion gene (GH3:GUS) were grown under standard conditions (Holmes P, Goffard N, Weiller G F, Rolfe B G, & Imin N (2008), “Transcriptional profiling of Medicago truncatula meristematic root cells”, BMC Plant Biol 8:21).
# The RAR peptides were synthesized at the Biomolecular Resource Facility, The Australian National University. The 15 amino acid (aa) peptides corresponding to the conserved domains of MtRAR1 (AFQHypTTPGNSHypGVGH and […]ypGVGH, where Hyp indicates hydroxy proline residue) and M. hapla MhRAR2 (AFRHypTAPGHSHypGVGH) were synthesized and validated as previously described in Djordjevic M A. et al. (2011), “Border sequences of Medicago truncatula CLE36 are specifically cleaved by endoproteases common to the extracellular fluids of Medicago and soybean”. J Exp Bot 62(13):4649-4659. The root length of wild-type plants was measured four days after transfer to Fåhraeus-medium containing the synthetic peptide. For the hormone assays, A17 plants were grown on Fåhraeus-medium for 10 days before transferring to Fåhraeus-medium containing 10^−6 M of the respective phytohormones; 1-aminocyclopropant-1-carboxylic acid (ACC), 6-benzylaminopurine (BAP), gibberallic acid (GA), synthetic analog of strigolactone (GR24), methyljasmonate (MeJA) and 1-naphthaleneacetic acid (NAA).
# Lucerne (M. sativa) = assay: Lateral root formation of plants grown in magenta jars with peptide; type: in vivo; conditions: 1 μM peptide
# Experimental: (§2) M. truncatula, M. sativa, Subterranean Clover Cultivar Woogenellup and white clover (Trifolium repens) plants were grown in 0.4% agar-containing magenta jars supplemented with F media with or without peptides for two weeks. The media contained 5 mM KNO3. MtRAR1 peptide: FQ(P)TTPGNS(P)GVGH where (P) is hydroxyproline. Students' t-test *: P<0.05; **; P<0.01; ***: P<0.001; N>12. Error bars represent SE.
# The plants were grown in 0.4% agar-containing magenta jars supplemented with F media with or without peptides for two weeks. The medium contained 5 mM KNO3. MtRAR1 peptide: FQ(P)TTPGNS(P)GVGH where (P) is hydroxyproline.
# (§3) To further validate and exemplify the RAR technology, we have examined RAR peptide addition of roots of various plant species.
# Nitrogenase activity = assay: Acetylene reduction assay (nitrogenase activity) of plants inoculated with S. meliloti WSM1022; type: in vivo, Medicago truncatula; conditions: 1 μM peptide
# Experimental: as §1
# [2] = test system: microtom tomato seedlings; assay: Plate assay, lateral root formation on microtom tomato seedlings; type: in vivo; conditions: 1 μM peptide
# Experimental: The plants were grown so 0.8% agar-containing plates supplemented with F media with or without peptides for two weeks. The media contained 5 mM KNO3. MtRAR1 peptide: […] where (P) is hydroxyproline. Students' t-test, **: P<0.01; N>12. Error bars represent SE.
# The plants were grows in 0.8% agar-containing plates supplemented with F media with or without peptides for two weeks. The medium contained 5 mM KNO3. MtRAR1 peptide: FQ(P)TTPGNS(P)GVGH where (P) is hydroxyproline.
# Primary root length was not affected (FIG. 6).
# [3] = test system: white clover (Trifolium repens); assay: Lateral root formation of plants grown in magenta jars with peptide; type: in vivo; conditions: 1 μM peptide
# Experimental: as §2
# The plants were grown in 0.4% agar-containing magenta jars supplemented with F medium with on without peptides for two weeks. The media contained 5 mM KNO3. MtRAR1 peptide: […] where (P) is hydroxyproline.
# as §3
# M. truncatula = assay: as above; type: in vivo, Medicago truncatula; conditions: 1 μM peptide, 5 mM KNO3, two weeks, P<0.05
# Experimental: as §2, §3
# [4] = test system: Subterranean Clover Cultivar Woogenellup; assay: as above; type: in vivo; conditions: 1 μM peptide
# Experimental: as §2
# The plants were grows in 0.4% agar-containing magenta jars supplemented with F media with or without peptides for two weeks. The media contained 5 mM KNO3. MtRAR1 peptide: FQ(P)TTPGNS(P)GVGH where (P) is hydroxyproline.
# as §3
# [5] = test system: Arabidopsis thaliana WT Col plants; assay: RAR bioactivity in Arabidopsis at different concentrations; type: in vivo
# Experimental: To investigate the effect of different modifications on peptide bioactivity, several peptides were assayed for activity at different concentrations (Table 4), WT Col plants were grown vertically on ½ MS plates with 1% phytagel and containing varying concentration of RAR peptide ranging from 10^−6 M to 10^−12 M or no peptide. Plates were imaged at 12 days.
# [6] = test system: Arabidopsis thaliana WT Col plants; assay: Rescue: transfer of Arabidopsis plants between RAR and no RAR plates; type: in vivo
# Experimental: To investigate whether the effect of RAR peptide addition could be released, WT Col plants were grown vertically for 6 days on […] plates with 1% phytagel. Plants were transferred from plates containing no RAR or 1 μM RAR6 hyP peptide (pre-treatment) to plates containing no RAR or 1 μM RAR6 hyP peptide as specified where they were left to grow for a further 6 days before being analysed.
# [7] = test system: Arabidopsis thaliana WT Col plants; assay: Time course of RAR action in Arabidopsis over 12 days; type: in vivo; conditions: 1 μM
# Experimental: To see how RAR was exerting its effect on PR growth and lateral root emergence and growth, a time course was performed over 12 days, WT Col plants were grown vertically on ½ MS with 1% phytagel and 1 μM RAR6 hyP or no peptide, with 16 hr days at 22° C. Plates were scanned every day for 12 days.
# rice seedlings = assay: Liquid culture (half strength MS), root formation of rice seedlings; type: in vivo; conditions: 1 μM peptide
# Experimental: The plants were grown in liquid media containing half strength MS media with or without peptides for two weeks. Monocot RAR peptide: DTRATDFGHS(P)GAGH where (P) is hydroxyproline. Students' t-test, *: P<0.05; N>6. Error bars represent SE.
# The plants were grown in liquid media containing half strength MS media with or without peptides for two weeks. Monocot RAR peptide: DTRATDPGHS(P)GAGH where (P) is hydroxyproline:
# Primary root length was also affected (FIG. 23).
# soybean seedlings = assay: Liquid culture, root formation of soybean seedlings; type: in vivo; conditions: 1 μM peptide
# Experimental: The plants were grown in liquid supplemented with F medium with or without peptides for two weeks. The medium contained 5 mM KNO3. GmRAR peptide: NFR(P)TAPGHS(P)GVGH where (P) is hydroxyproline. Students' t-test, **; P<0.01; N>6. Error bars represent SE.
# The plants were grown in liquid supplemented with F medium with or without peptides for two weeks. The media contained 5 mM KNO3. GmRAR peptide: […] where (P) is hydroxyproline.
# Primary root length was also affected (FIG. 21).
# [8] = range tested 10^−6 M to 10^−12 M, 12 days
substance,measurement,setting,value
AFQ(P)TTPANS(P)GVGH [MtRAR1 Domain 1 with G−>A transition],Nodule numbers,"[1]; 1 μM peptide, 5 mM and 25 mM KNO3, trend = significant increase as with MtRAR1 over-expression",non-functional
same,Inhibition of lateral root emergence (structure activity relationship of peptide variants),M. truncatula roots; compared with MtRAR1 peptide,greatly attenuated
AFQ[Hyp]TTPGNS[Hyp]GVGH [MtRAR1 peptide],CCP (bump) site formation,Lucerne (M. sativa),formed CCP
same,Lateral root emergence,"Lucerne (M. sativa); 5 mM KNO3, two weeks, P<0.05",significantly inhibited
same,Increase in nitrogenase activity,"Nitrogenase activity; 0 mM KNO3, 2 week post inoculation",35%
same,Increase in nitrogenase activity,"Nitrogenase activity; 5 mM KNO3, 2 week post inoculation",200%
same,Primary root length,[2],not affected
same,Number of lateral roots,"[2]; 5 mM KNO3, two weeks, P<0.05",reduction
same,CCP (bump) site formation,[3],formed CCP
same,Lateral root emergence,"[3]; 5 mM KNO3, two weeks, P<0.05",significantly inhibited
same,Numbers of pink functional nodules,"[1]; 1 μM peptide, 5 mM and 25 mM KNO3, compared to controls",significantly higher numbers
same,Nodule development (nodule sections),"[1]; 0.5 mM or 25 mM KNO3, three weeks, versus untreated plants",accelerated nodule development
same,Nodule size,"[1]; all across the nitrate regimen, versus no peptide or G->A peptide",much larger
same,Lateral root emergence,M. truncatula,significantly inhibited
same,CCP (bump) site formation,[4],formed CCP
same,Lateral root emergence,"[4]; 5 mM KNO3, two weeks, P<0.05",significantly inhibited
same,Main root growth,M. truncatula roots; 10^−6 M peptide,significantly inhibited
same,Lateral root formation,"M. truncatula roots; A17 plants, F medium containing 25 mM KNO3, 10^−6 M peptide",significantly reduced
same,Concentration for dose-dependent inhibition of lateral root emergence,M. truncatula roots; in vivo,greater than 10^−7 M
same,Periodic bump (CCP site) formation,M. truncatula roots,Maximum CCP site generation; also recorded: Periodic bumps
AFR[Hyp]TAPGHS[Hyp]GVGH [MhRAR2],Periodic bump (CCP site) formation,M. truncatula roots,Maximum CCP site generation; also recorded: Periodic bumps
D F R hyP T (p-T) P G H S hyP G I G H [RAR6 phos],Activity relative to the non-phosphorylated RAR6 peptide,[5]; in vivo,1000 ×
same,Concentration range at which the peptide is active (in words),[5]; [8],picomolar
D F R hyP T T P G H S hyP G I G H [RAR6 hyP],Primary root length of plants pre-treated with RAR and transferred to no RAR versus plants exposed to RAR continuously,"[6]; 1 μM, 6 + 6 days, p<0.05",significantly higher
same,"Number of lateral roots after transfer to no RAR, by pre-treatment","[6]; 6 days pre-treatment with 1 μM or no RAR, then 6 days no RAR",the same
same,"PR length, treated versus untreated",[7]; 2 days post imbibing,no significant difference
same,"PR length, treated versus untreated",[7]; from day 3 onwards,significantly shorter
same,"Number of lateral roots, treated versus untreated",[7]; scanned every day for 12 days,not significantly different until day 8
D F V P T S P G N S P G V G H (DFVPTSPGNSPGVGH) [RAR5 no HyP],Concentration at which the peptide is active,[5]; [8],10^−9 M
D F V hyP T (p-S) P G N S hyP G V G H [RAR5 phos],Effect of phosphorylation on activity,[5]; Arabidopsis RAR5,enhances activity
D F V hyP T S P G N S hyP G V G H [RAR5 hyP],Concentration at which the peptide is active,[5]; [8],10^−8 M
DTRATDPGHS(P)GAGH [Monocot RAR peptide],Primary root length,rice seedlings,affected
same,Number of roots,"rice seedlings; liquid half strength MS, two weeks, P<0.05",reduction
NFR(P)TAPGHS(P)GVGH [GmRAR peptide],Primary root length,soybean seedlings,affected
same,Number of roots,"soybean seedlings; liquid F medium, 5 mM KNO3, two weeks, P<0.05",reduction
